Data on seven compounds can be found in patent US8318749B2, “Quinazoline derivatives as NK3 receptor antagonists” (Hoffmann-La Roche Inc., priority 2008, dated 2012).

For assay [1] the following is noted: phase II trial, cited from earlier work.
Assay [2] concerns the target T1, recombinant human NK3 receptor (Homo sapiens, UniProt P29371).
T1 construct: expressed in transfected cells; host or cells: HEK293 cells (transient expression), membrane preparation
T1 sequence (P29371 1-465): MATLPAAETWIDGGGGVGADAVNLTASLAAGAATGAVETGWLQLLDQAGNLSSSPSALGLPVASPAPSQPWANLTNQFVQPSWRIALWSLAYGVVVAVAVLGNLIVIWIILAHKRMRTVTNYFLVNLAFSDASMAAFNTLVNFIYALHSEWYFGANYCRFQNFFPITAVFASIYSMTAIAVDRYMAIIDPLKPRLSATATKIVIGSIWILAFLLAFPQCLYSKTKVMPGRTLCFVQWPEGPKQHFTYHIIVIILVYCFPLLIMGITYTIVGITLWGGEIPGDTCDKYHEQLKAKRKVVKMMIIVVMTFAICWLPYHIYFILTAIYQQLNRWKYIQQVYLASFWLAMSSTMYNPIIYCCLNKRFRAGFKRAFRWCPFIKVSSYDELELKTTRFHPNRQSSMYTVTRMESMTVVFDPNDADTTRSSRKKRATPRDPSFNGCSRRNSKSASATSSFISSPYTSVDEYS
The assay is described as follows: [3H]SR142801 competition binding assay. To be noted: membrane from HEK293 cells transiently expressing recombinant human NK3 receptor; radioligand [3H]SR142801; 75 min at RT. Here is the method: [^3H]SR142801 Competition Binding Assay
hNK3 receptor binding experiment were performed using [^3H]SR142801 (Catalog No. TRK1035, specific activity: 74.0 Ci/mmol, Amersham, GE Healthcare UK limited, Buckinghamshire, UK) and membrane isolated from HEK293 cells transiently expressing recombinant human NK3 receptor. After thawing, the membrane homogenates were centrifuged at 48,000×g for 10 min at 4° C., the pellets were resuspended in the 50 mM Tris-HCl, 4 mM MnCl2, 1 μM phosphoramidon, 0.1% BSA binding buffer at pH 7.4 to a final assay concentration of 5 μg protein/well. […] At the end of the incubation, membranes were filtered onto unitfilter (96-well white microplate with bonded GF/C filter preincubated 1 h in 0.3% PEI+0.3% BSA, Packard BioScience, Meriden, Conn.) with a Filtermate 196 harvester (Packard BioScience) and washed 4 times with ice-cold 50 mM Tris-HCl, pH 7.4 buffer. Nonspecific binding was measured in the presence of 10 μM SB222200 for both radioligands. The radioactivity on the filter was counted (5 min) on a Packard Top-count microplate scintillation counter with quenching correction after addition of 45 μl of microscint 40 (Canberra Packard S.A., Zürich, Switzerland) and shaking for 1 h. Inhibition curves were fitted according to the Hill equation: y=100/(1+(x/IC50)^nH), where nH=slope factor using Excel-fit 4 software (Microsoft). IC50 values were derived from the inhibition curve and the affinity constant (Ki) values were calculated using the Cheng-Prussoff equation Ki=IC50/(1+[L]/KD) where [L] is the concentration of radioligand and KD is its dissociation constant at the receptor, derived from the saturation isotherm. All experiments were performed in duplicate and the mean±standard error (SEM) of the individual Ki values was calculated.

Molecules are shown by their SMILES.

Consider `CC(=O)N(C)C1(c2ccccc2)CCN(CCC[C@]2(c3ccc(Cl)c(Cl)c3)CCCN(C(=O)c3ccccc3)C2)CC1` [SR 142,801, Osanetant], for which, in assay [1] (altered behaviour, delusion, hallucinations, extreme emotions, excited motor activity, incoherent speech), the “activity on positive symptoms of schizophrenia” value was “active”. The “activity in the treatment of negative symptoms” value in assay [1] (depression, anhedonia, social isolation or memory and attention deficits) was “inactive”.
Broadly, the Ki is the equilibrium dissociation constant of an inhibitor or competing ligand from its target. On to `COc1cc2nc(N3CCC(Cc4ccccc4)(C(=O)N4CCCC4c4ccccc4)CC3)nc(N)c2cc1OC` (centres unmarked) [Example 47, [1-(4-Amino-6,7-dimethoxy-quinazolin-2-yl)-4-benzyl-piperidin-4-yl]-(2-phenyl-pyrrolidin-1-yl)-methanone], for which the Ki in assay [2] was 46.7 nM.
Consider `CC(C)Oc1ccc2nc(N3CCC(Cc4ccccc4)(C(=O)NCc4ccccc4)CC3)nc(O)c2c1` [Example 83, 4-Benzyl-1-(4-hydroxy-6-isopropoxy-quinazolin-2-yl)-piperidine-4-carboxylic acid benzylamide], for which the Ki in assay [2] came out at 97.5 nM.
Regarding `COc1cc2nc(N3CCC(Cc4ccccc4)(C(=O)NCc4ccccc4)CC3)nc(O)c2cc1F` [Example 88, 4-Benzyl-1-(6-fluoro-4-hydroxy-7-methoxy-quinazolin-2-yl)-piperidine-4-carboxylic acid benzylamide], in assay [2], the Ki is 9.3 nM.
On the same count and under the same terms, then `COc1cc2nc(N3CCC(Cc4ccccc4)(C(=O)NC4Cc5ccccc5C4)CC3)nc(N)c2cc1OC` [Example 19, 1-(4-Amino-6,7-dimethoxy-quinazolin-2-yl)-4-benzyl-piperidine-4-carboxylic acid indan-2-ylamie], with 27.8 nM; and `COc1cc2nc(N3CCC(Cc4ccccc4)(C(=O)NCc4ccc(N(C)C)cc4)CC3)nc(N)c2cc1OC` [Example 33, 1-(4-Amino-6,7-dimethoxy-quinazolin-2-yl)-4-benzyl-piperidine-4-carboxylic acid 4-dimethylamino-benzylamide], with 17.2 nM; and `COc1cc2nc(N3CCC(Cc4ccccc4)(C(=O)NCc4cccnc4)CC3)nc(O)c2cc1OC` [Example 2, 4-Benzyl-1-(4-hydroxy-6,7-dimethoxy-quinazolin-2-yl)-piperidine-4-carboxylic acid (pyridin-3-ylmethyl)-amide], with 66.1 nM.
